Like-named read-outs stand apart in the source and are kept apart here.
What was measured:
[1] = target: T1, human estrogen receptor beta (ESR2) (Homo sapiens, UniProt Q92731); assay: ERE-luciferase reporter assay in transiently transfected SKBR3 cells (ESR2); type: cell-based; details: ESR2 isoform, E2 10 nM, RAD1901 10^-10-10^-6 M, 24 hours
T1 construct: expressed in transfected cells; host or cells: SKBR3
Protocol: (§1) The ability of RAD1901 (FIG. 5A) to modulate the […] estradiol (E2) dependent transcriptional activity of the human estrogen receptor alpha (ESR1) and human estrogen receptor beta (ESR2) was assessed in transiently transfected SKBR3 cells using a synthetic reporter gene. […] For FIG. 5B, SKBR3 cells were plated in phenol red free media supplemented with charcoal stripped FBS (CFS) 24 hours prior to transfection with an ERE-luciferase reporter together with ESR1 or ESR2 expression vectors. 24 hours after transfection, cells were treated with E2 (10 nM) together with RAD1901 (10^−10-10^−6 M) for 24 hours prior to harvest and analysis of luciferase activity normalized to co-transfected β-galactosidase control. […] For FIG. 5D, MCF7 cells were plated in phenol red free media supplemented with CFS 24 hours prior to treatment, and were treated with 10^−9 M E2 as well as with the indicated ligands (10^−11-10^−6 M) on days 1, 4, and 6 of an 8 day proliferation assay. DNA content as assessed by fluorescence was measured as a surrogate for cell proliferation. The relative increase in DNA fluorescence was calculated by normalizing to baseline values detected in a duplicate plate of cells that was harvested on day 1 prior to the initial treatment. […] For FIG. 5F, expression of ESR1 target genes in tumors was analyzed essentially as in (C).

[2] = target: T2, human estrogen receptor alpha (ESR1) (Homo sapiens, UniProt P03372); assay: ERE-luciferase reporter assay in transiently transfected SKBR3 cells (ESR1); type: cell-based
T2 construct: expressed in transfected cells; host or cells: SKBR3
T2 sequence (P03372 1-595): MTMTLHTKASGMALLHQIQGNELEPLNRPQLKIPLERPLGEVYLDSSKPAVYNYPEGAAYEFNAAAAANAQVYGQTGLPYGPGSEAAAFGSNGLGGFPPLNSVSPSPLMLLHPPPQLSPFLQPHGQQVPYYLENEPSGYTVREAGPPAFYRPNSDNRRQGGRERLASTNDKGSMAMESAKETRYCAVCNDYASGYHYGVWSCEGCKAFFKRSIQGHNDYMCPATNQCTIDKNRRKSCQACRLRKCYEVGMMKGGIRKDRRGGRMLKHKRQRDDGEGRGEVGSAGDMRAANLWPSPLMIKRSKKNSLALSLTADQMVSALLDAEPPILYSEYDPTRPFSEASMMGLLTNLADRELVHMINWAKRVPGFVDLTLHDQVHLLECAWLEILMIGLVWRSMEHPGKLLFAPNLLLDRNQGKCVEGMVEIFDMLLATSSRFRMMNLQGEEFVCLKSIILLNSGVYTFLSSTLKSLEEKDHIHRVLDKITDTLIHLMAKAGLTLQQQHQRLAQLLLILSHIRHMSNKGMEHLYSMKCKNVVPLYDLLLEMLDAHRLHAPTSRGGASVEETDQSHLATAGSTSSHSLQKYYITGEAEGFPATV
Protocol: as §1

ESR1 [3] = target: T3, ESR1 (Homo sapiens, UniProt P03372); assay: ESR1 expression in LTED MCF7 cells (immunoblot); type: cell-based; details: 24 hours, SERDs 10^-6 M
T3 sequence (P03372 1-595): T2 sequence (P03372 1-595)
Protocol: MCF7 and SKBR3 cell lines were maintained in DMEM/F12 or RPMI media (Invitrogen), respectively, supplemented with 8% fetal bovine serum (FBS, Gemini), non-essential amino acids (Invitrogen), and sodium pyruvate (Invitrogen). Unless otherwise indicated, cells were plated for experiments in media lacking phenol red and supplemented with 8% charcoal stripped FBS (CFS, Gemini). LTED MCF7 cells were maintained and plated for experiments in phenol red free DMEM/F12 media supplemented with 8% CFS that had been charcoal stripped twice. 48 hours after plating, cells were treated with ESR1 ligands as indicated, and were harvested for immunoblot or real time quantitative PCR analysis 24 hours after treatment.
(§2) Expression of ESR1 and loading control cytokeratin 18 (CK18—FIG. 7A) in whole cell extracts were detected by immunoblot (top). ESR1 levels relative to CK18 were quantitated by densitometry using Adobe Photoshop (bottom). […] ESR1 expression was detected as in FIG. 6A. For FIGS. 6C-6D, LTED MCF7 cells were plated in phenol red free media supplemented with FBS that was stripped of growth factors twice using charcoal. For FIG. 6C, after 48 hours, cells were treated for 24 hours with E2 (10^−7 M) or SERDs (10^−6 M) and ESR1 was analyzed as in FIG. 6A.

[4] = cited from earlier work
ESR1 [5] = target: T3, ESR1; assay: ESR1 expression in MCF7 cells (immunoblot, mRNA, MG132 pre-treatment); type: cell-based
Protocol: Protein expression was analyzed as described (Wittmann et al., (2007) Cancer Res 67 (19):9549-9560) using antibodies purchased from Sigma-Aldrich—A5441 (β-actin) and Santa Cruz Biotechnology—sc-6259 (cytokeratin 18), sc-20680 (lamin A), sc-5546 (α-tubulin) and sc-8005 (ESR1).
as §2

[6] = system: ESR1 target gene trefoil factor 1 (TFF1); assay: E2-dependent ESR1 target gene (TFF1) mRNA in MCF7 cells, RT qPCR; type: cell-based; details: 10^-9 M E2, ligand 10^-11-10^-6 M, 24 hours
Protocol: RNA isolation and analysis was performed as described (Wardell et al., (2001) Biochem Pharmacol 82 (2):122-130). mRNA abundance was calculated using the ΔΔCT method (Wardell et al., (2001) Biochem Pharmacol 82 (2):122-130). Primer sequences are available upon request.
The ability of RAD1901 (FIG. 5A) to modulate the […] estradiol (E2) dependent transcriptional activity of the human estrogen receptor alpha (ESR1) and human estrogen receptor beta (ESR2) was assessed in transiently transfected SKBR3 cells using a synthetic reporter gene. […] For FIG. 5B, SKBR3 cells were plated in phenol red free media supplemented with charcoal stripped FBS (CFS) 24 hours prior to transfection with an ERE-luciferase reporter together with ESR1 or ESR2 expression vectors. 24 hours after transfection, cells were treated with E2 (10 nM) together with RAD1901 (10^−10-10^−6 M) for 24 hours prior to harvest and analysis of luciferase activity normalized to co-transfected β-galactosidase control. […] DNA content as assessed by fluorescence was measured as a surrogate for cell proliferation. The relative increase in DNA fluorescence was calculated by normalizing to baseline values detected in a duplicate plate of cells that was harvested on day 1 prior to the initial treatment. […] For FIG. 5F, expression of ESR1 target genes in tumors was analyzed essentially as in (C).

T1 sequence (Q92731 whole entry, canonical isoform): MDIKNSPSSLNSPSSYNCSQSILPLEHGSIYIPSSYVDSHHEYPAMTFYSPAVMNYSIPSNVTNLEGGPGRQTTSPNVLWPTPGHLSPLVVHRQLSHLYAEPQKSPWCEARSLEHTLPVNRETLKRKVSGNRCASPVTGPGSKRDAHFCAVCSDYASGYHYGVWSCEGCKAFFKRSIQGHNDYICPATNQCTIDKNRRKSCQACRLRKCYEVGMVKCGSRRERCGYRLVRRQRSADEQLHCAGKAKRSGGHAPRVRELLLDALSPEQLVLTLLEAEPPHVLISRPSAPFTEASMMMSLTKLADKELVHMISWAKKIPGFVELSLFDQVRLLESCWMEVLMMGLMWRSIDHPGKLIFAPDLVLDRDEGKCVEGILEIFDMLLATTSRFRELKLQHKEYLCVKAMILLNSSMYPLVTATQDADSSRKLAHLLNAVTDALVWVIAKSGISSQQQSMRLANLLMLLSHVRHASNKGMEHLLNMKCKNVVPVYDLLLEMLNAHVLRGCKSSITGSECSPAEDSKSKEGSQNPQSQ

Structure (SMILES): CCNCCc1ccc(CN(CC)c2cc(OC)ccc2[C@@H]2CCc3cc(O)ccc3C2)cc1 [RAD1901, (R)-6-{2-{ethyl[4-(2-ethylaminoethyl)benzyl]amino}-4-methoxyphenyl}-5,6,7,8-tetrahydronaphthalen-2-ol]
- inhibition of E2-dependent activation of an ERE-luciferase reporter [1]: effectively inhibited
- more potent inhibitor of ESR1 than of ESR2 ([2]; ERE-luciferase reporter): 100 fold
- inhibition of E2-dependent activation of an ERE-luciferase reporter ([2]; ESR1 isoform, E2 10 nM, RAD1901 10^-10-10^-6 M, 24 hours): effectively inhibited
- ESR1 expression levels (ESR1 [3]): downregulated ESR1 expression
- induction of hot flashes ([4]; healthy postmenopausal women): induces hot flashes in healthy postmenopausal women in a dose dependent manner
- hot flashes in clinical trials ([4]; higher doses tested): ineffective
- hot flashes in clinical trials ([4]; lowest dose tested): effectively suppress hot flashes
- brain penetrance ([4]; postmenopausal women): significant brain penetrance
- ESR1 mRNA expression (ESR1 [5]): no effect
- ESR1 expression (immunoblot) (ESR1 [5]; 24 hours, RAD1901 10^-11-10^-5 M): significantly downregulated
- downregulation of ESR1 after pre-treatment with proteasome inhibitor MG132 (ESR1 [5]; MG132 1 hour pre-treatment, 6 hours ligand): completely blocked
- E2-dependent induction of target gene transcription (TFF1 mRNA) [6]: inhibited
